Measurements as given in ChEMBL document CHEMBL3351946, “Design and synthesis of potent antitumor water-soluble phenyl N-mustard-benzenealkylamide conjugates via a bioisostere approach” (Eur J Med Chem, 2014).
Calls of active or inactive are those of the source. No cut-off for these calls is given here.

Columns and labels:
[1] = test system: HT-29; assay: Cytotoxicity against human HT-29 cells assessed as growth inhibition after 72 hrs by Alamar Blue assay; assay type: functional, cell-based; settings: HT-29, 72 h
[2] = Cytotoxicity against human H460 cells assessed as growth inhibition after 72 hrs by Alamar Blue assay; assay type: functional, cell-based; settings: NCI-H460, 72 h
[3] = Cytotoxicity against human H1299 cells assessed as growth inhibition after 72 hrs by Alamar Blue assay; assay type: functional, cell-based; settings: NCI-H1299, 72 h
[4] = Cytotoxicity against human HCT116 cells assessed as growth inhibition after 72 hrs by Alamar Blue assay; assay type: functional, cell-based; settings: HCT-116, 72 h
[5] = Antitumor activity against human PC3 cells xenografted in nude mouse assessed as tumor growth inhibition at 50 mg/kg,iv administered every 2 days for 5 doses measured on day 24 to 28 relative to control; assay type: functional, PC-3
[6] = Antitumor activity against human PC3 cells xenografted in nude mouse assessed as tumor growth inhibition at 30 mg/kg,iv qd administered for 6 days measured on day 38 relative to control; assay type: functional; settings: PC-3, iv, read-out: TGI
[7] = test system: Mus musculus; assay: Toxicity in nude mouse xenografted with human PC3 cells assessed as body weight loss at 30 mg/kg,iv qd administered for 6 days measured on day 13 relative to control; assay type: organism-based, PC-3; design: dose 30 mg/kg; settings: in vivo, 144 h
[8] = test system: Mus musculus; assay: Toxicity in nude mouse xenografted with human H460 cells assessed as body weight loss at 30 mg/kg,iv qd administered for 6 days measured on day 15 relative to control; assay type: organism-based; design: dose 30 mg/kg; settings: in vivo, 144 h
[9] = test system: Mus musculus; assay: Toxicity in nude mouse xenografted with human PC3 cells assessed as change in body weight at 30 mg/kg,iv qd administered for 6 days measured on day 31 relative to control; assay type: organism-based, PC-3; design: dose 30 mg/kg; settings: in vivo, 144 h
[10] = test system: Mus musculus; assay: Toxicity in nude mouse xenografted with human PC3 cells assessed as change in body weight at 50 mg/kg,iv administered every 2 days for 5 doses measured on day 38 relative to control; assay type: organism-based, PC-3; design: dose 50 mg/kg; settings: in vivo, 48 h
[11] = test system: HCT-116; assay: Antitumor activity against human HCT116 cells xenografted in nude mouse assessed as survival at 30 mg/kg,iv qd administered for 6 days; assay type: functional, organism-based; design: dose 30 mg/kg
[12] = test system: PC-3; assay: Antitumor activity against human PC3 cells xenografted in nude mouse assessed as survival at 40 mg/kg,iv administered every 2 days for 5 doses; assay type: functional, organism-based; design: dose 40 mg/kg
[13] = Induction of pEGFP-N1 DNA (unknown origin) interstand crosslinking after 2 hrs by alkaline agarose gel shift assay
[14] = Cell cycle arrest in human HCT116 cells assessed as accumulation at G1 phase at 1 uM after 24 hrs by FACS flow cytometric analysis (reference value: 48.75 +/- 3.69%); assay type: functional, cell-based; settings: HCT-116
[15] = Cell cycle arrest in human HCT116 cells assessed as accumulation at sub-G1 phase at 2 uM after 24 hrs by FACS flow cytometric analysis (reference value: 1.37 +/- 0.95%); assay type: functional, cell-based; settings: HCT-116
[16] = Cell cycle arrest in human HCT116 cells assessed as accumulation at G1 phase at 2 uM after 24 hrs by FACS flow cytometric analysis (reference value: 48.75 +/- 3.69%); assay type: functional, cell-based; settings: HCT-116
[17] = Cell cycle arrest in human HCT116 cells assessed as accumulation at sub-G1 phase at 4 uM after 24 hrs by FACS flow cytometric analysis (reference value: 1.37 +/- 0.95%); assay type: functional, cell-based; settings: HCT-116
[18] = Cell cycle arrest in human HCT116 cells assessed as accumulation at sub-G1 phase at 1 uM after 48 hrs by FACS flow cytometric analysis (reference value: 1.65 +/- 0.06%); assay type: functional, cell-based; settings: HCT-116
[19] = Cell cycle arrest in human HCT116 cells assessed as accumulation at S phase at 1 uM after 48 hrs by FACS flow cytometric analysis (reference value: 12.11 +/- 4.28%); assay type: functional, cell-based; settings: HCT-116
[20] = Cell cycle arrest in human HCT116 cells assessed as accumulation at G1 phase at 2 uM after 48 hrs by FACS flow cytometric analysis (reference value: 62.16 +/- 5.94%); assay type: functional, cell-based; settings: HCT-116
[21] = Cell cycle arrest in human HCT116 cells assessed as accumulation at S phase at 2 uM after 48 hrs by FACS flow cytometric analysis (reference value: 12.11 +/- 4.28%); assay type: functional, cell-based; settings: HCT-116
[22] = Cell cycle arrest in human HCT116 cells assessed as accumulation at G1 phase at 4 uM after 48 hrs by FACS flow cytometric analysis (reference value: 62.16 +/- 5.94%); assay type: functional, cell-based; settings: HCT-116
[23] = Cell cycle arrest in human HCT116 cells assessed as accumulation at G1 phase at 1 uM after 72 hrs by FACS flow cytometric analysis (reference value: 76.29 +/- 2.65%); assay type: functional, cell-based; settings: HCT-116
[24] = Cell cycle arrest in human HCT116 cells assessed as accumulation at sub-G1 phase at 2 uM after 72 hrs by FACS flow cytometric analysis (reference value: 3.29 +/- 1.39%); assay type: functional, cell-based; settings: HCT-116
[25] = Cell cycle arrest in human HCT116 cells assessed as accumulation at sub-G1 phase at 4 uM after 72 hrs by FACS flow cytometric analysis (reference value: 3.29 +/- 1.39%); assay type: functional, cell-based; settings: HCT-116
[26] = Cell cycle arrest in human HCT116 cells assessed as accumulation at G1 phase at 4 uM after 72 hrs by FACS flow cytometric analysis (reference value: 76.29 +/- 2.65%); assay type: functional, cell-based; settings: HCT-116
[27] = test system: HCT-116; assay: Induction of apoptosis in human HCT116 cells assessed as caspase-3 cleavage at 1 to 4 uM after 24 hrs by Western blot analysis; assay type: functional, cell-based
[28] = test system: Mus musculus; assay: Induction of apoptosis in HCT116 cells xenografted in nude mouse at 30 mg/kg, iv qd administered for 6 days measured 24 hrs post last dose by TUNEL assay; assay type: functional, organism-based; design: dose 30 mg/kg; settings: HCT-116
[29] = test system: Mus musculus; assay: Induction of apoptosis in HCT116 cells xenografted in nude mouse at 30 mg/kg, iv qd administered for 6 days measured 24 hrs post last dose by hematoxylin and eosin staining; assay type: functional, organism-based; design: dose 30 mg/kg; settings: HCT-116
[30] = Terminal half life in Sprague-Dawley rat at 5 mg/kg, iv; assay type: ADME, organism-based; design: dose 5 mg/kg, route intravenous; settings: in vivo, read-out: beta t1/2 (converted)
[31] = Terminal half life in Sprague-Dawley rat at 50 mg/kg, po; assay type: ADME, organism-based; design: dose 50 mg/kg, route oral; settings: in vivo, read-out: beta t1/2 (converted)
[32] = Oral bioavailability in Sprague-Dawley rat at 50 mg/kg; assay type: ADME, organism-based; settings: in vivo
[33] = test system: Mus musculus; assay: Toxicity in iv dosed CD-1 (ICR) mouse assessed as hypoactivity measured for 14 days; assay type: organism-based; settings: in vivo, 336 h
[34] = test system: Mus musculus; assay: Toxicity in iv dosed CD-1 (ICR) mouse assessed as swelling of cheek measured for 14 days; assay type: organism-based; settings: in vivo, 336 h
[35] = test system: Mus musculus; assay: Toxicity in iv dosed CD-1 (ICR) mouse assessed as soft feces measured for 14 days; assay type: organism-based; settings: in vivo, 336 h
[36] = test system: Mus musculus; assay: Toxicity in iv dosed CD-1 (ICR) mouse assessed as dehydration measured for 14 days; assay type: organism-based; settings: in vivo, 336 h
[37] = test system: Mus musculus; assay: Toxicity in CD-1 (ICR) mouse assessed as body weight loss at 75 to 105 mg/kg, iv measured on day 8; assay type: organism-based; design: dose 75-105 mg/kg, route intravenous; settings: in vivo
[38] = test system: Mus musculus; assay: Toxicity in CD-1 (ICR) mouse assessed as decrease in food consumption at 75 to 105 mg/kg, iv measured on day 8; assay type: organism-based; design: dose 75-105 mg/kg, route intravenous; settings: in vivo
[39] = Toxicity in iv dosed CD-1 (ICR) mouse measured for 14 days; assay type: organism-based; settings: in vivo

CCN(CC)CC(=O)Nc1ccc(NC(=O)Nc2ccc(N(CCCl)CCCl)cc2)cc1
IC50 [1]: 19000 nM
IC50 [2]: 930 nM
IC50 [3]: 3430 nM
IC50 [4]: 820 nM
%max [5]: 88%
inhibition in vivo at 30 mg/kg [6]: 16%
%max [7]: -15%
%max [8]: -18%
Activity [9]: -28%
Activity [10]: -8%
Activity [11]: Active
Activity [12]: Active
Activity [13]: Dose-dependent effect
Activity [14]: 17.3%
Activity [15]: 1.55%
Activity [16]: 11.8%
Activity [17]: 4.31%
Activity [18]: 9.86%
Activity [19]: 11.9%
Activity [20]: 49.5%
Activity [21]: 11.9%
Activity [22]: 19%
Activity [23]: 54.9%
Activity [24]: 19.7%
Activity [25]: 17.9%
Activity [26]: 18.1%
Activity [27]: Active
Activity [28]: Active
Activity [29]: Active
half-life [30]: 21.6 min
half-life [31]: 60.6 min
bioavailability [32]: 5.32%
Activity [33]: Dose-dependent effect
Activity [34]: Dose-dependent effect
Activity [35]: Dose-dependent effect
Activity [36]: Dose-dependent effect
Activity [37]: Toxic
Activity [38]: Toxic
LD50 at 336 h [39]: 115 mg/kg
